Like-named read-outs stand apart in the source and are kept apart here.

Here are results for nine compounds from US20110207705A1, “OVIEDOMYCIN DERIVATIVES, METHOD FOR OBTAINING SAME AND USE THEREOF” (UNIVERSIDAD DE OVIEDO, priority 2008, published 2011).

In series [1] the test system is tumour cell lines. Description: Anti-tumour activity against the series of tumour cell lines (SRB test). The format is cell-based. The conditions noted are these: tumour cell lines of Table 5, in words. Here is the method:
(§1) The OVM derivatives were tested against a series of cell lines from tumours. Cell growth and viability were quantitatively determined with a colorimetric type test, using the reaction with sulforhodamine B (SRB), according to the technique described by Faircloth et al. (Journal of Tissue and Culture Methods 1988, 11, 201-205).
(§2) 96-well microtiter plates are inoculated with cells (5×10^3 cells per well) in aliquots of 195 μl of medium, incubating them for 18 h, in medium without added compound, to allow the cells to adhere to the surface. Next, the compounds to be tested are added, in samples of 5 μl, in a concentration range of 10 to 10^−8 μg/ml, dissolved in DMSO/EtOH (0.2% in PS buffer). After 48 h exposure, the anti-tumour effect is measured using the SRB technique: the cells are fixed by adding 50 μl of cold trichloroacetic acid (50%) (w/v) and it is incubated for 60 min. at 4° C. The plates are washed with deionized water and dried. 100 μl of SRB solution (0.4% w/v in 1% acetic acid) are added to each well, and it is incubated for 10 min. at ambient temperature. The unbound SRB is eliminated, washing with 1% acetic acid. The plates are air dried and the bound colorant is dissolved with Tris buffer. The optical densities are read in an automatic dish spectrophotometer reader at a wavelength of 490 nm.

The test system of series [2] is HT29 (colon). Description: Anti-tumour activity, sulforhodamine B (SRB) colorimetric cell growth test. The format is cell-based. The conditions noted are these: read-out: GI50 (concentration at which the compound tested inhibits 50% of the cell growth in comparison with untreated cells). The method, then:
as §1, §2

For series [3], the system named is MDA-MB-231 (breast). The series is described as above. Format: cell-based. Particulars: 48 h exposure, read-out: GI50 (concentration at which the compound tested inhibits 50% of the cell growth in comparison with untreated cells). The method, then: as §1, §2
Series [4] relates to A549 (lung). The series is described as above. Format: cell-based. Particulars: 48 h exposure, read-out: GI50 (concentration at which the compound tested inhibits 50% of the cell growth in comparison with untreated cells). Here is the method:
as §1, §2

The conditions of series [5]: spontaneous dehydration and oxidation; J. Am. Chem. Soc. 1999, 121, 1786-1794; cited from earlier work.

Turning to 4a,12b-dehydro-UWM6 [formula IX], in series [1], the “GI50 values (in words)” value is on record as “submicromolar range”. In series [1], the “anti-tumour activity compared with OVM” value was “clearly greater activities than that of the OVM”. Moreover, the GI50 in series [2] (48 h exposure) was 1.85 µM; in series [3] it was 0.65 µM; in series [4], 0.77 µM.

5-hydroxy-rabelomycin [formula XII]: the values for the GI50 in series [2] (48 h exposure), in series [3] and in series [4] were 12.4 µM, 13.3 µM and 7.62 µM, respectively.

`Cc1c(O)c2cc(O)c3c(=O)c4c(O)cccc4c(=O)c3c2c(=O)c1=O` [OVM, Oviedomycin]: the values for the GI50 in series [2] (48 h exposure), in series [3] and in series [4] were 6.9 µM, 5.6 µM and 8.7 µM, respectively.

Take `C[C@]1(O)CC(=O)c2c(cc(O)c3c2C(=O)c2cccc(O)c2C3=O)C1` [formula VI, rabelomycin]: the GI50 in series [2] (Homo sapiens, HT-29, 48 h exposure) came out at 10.9 µM; in series [3] (Homo sapiens) it was 6.8 µM; in series [4] (Homo sapiens), 5.32 µM.

With `Cc1cc(O)c2c3c(c(O)c(O)c2c1)C(=O)c1c(O)cccc1C3=O` [formula VIII, 5-hydroxy-dehydro-rabelomycin], the GI50 came out at 8.03 µM in series [2] (48 h exposure), 2.56 µM in series [3] and 6.24 µM in series [4].

On to `CC1=CC(=O)[C@@H]2c3cc4cccc(O)c4c(O)c3C(=O)C[C@]2(O)C1` [formula X, prejadomycin], for which the “GI50 values (in words)” value in series [1] is “submicromolar range”. The “anti-tumour activity compared with OVM” value in series [1] is on record as “clearly greater activities than that of the OVM”. For the same compound, the GI50 in series [2] (48 h exposure) was determined as 1.29 µM; in series [3], 0.24 µM; in series [4], 0.29 µM.

On to `C[C@]1(O)CC(=O)C2c3cc4cccc(O)c4c(O)c3C(=O)C[C@]2(O)C1` (stereo partly shown) [formula XI, UWM6], for which, in series [5], the stability result is “unstable and spontaneously becomes rabelomycin”. Further, the GI50 is above 100 µM in series [2] (48 h exposure), 24.8 µM in series [3] and above 100 µM in series [4].

In the case of `C[C@]1(O)CC(=O)c2c(cc(O)c3c2C(=O)c2ccc(O)c(O)c2C3=O)C1` [formula XIII, 9-hydroxy-rabelomycin], the results for the GI50 in series [2] (48 h exposure), in series [3] and in series [4] were 14.1 µM, 7.06 µM and 3.1 µM, respectively.

Consider “prejadomycin 2-carboxylate [formula VII]”, for which the “GI50 values (in words)” value in series [1] is recorded as “submicromolar range”. For the same compound, the “anti-tumour activity compared with OVM” value in series [1] is reported as “clearly greater activities than that of the OVM”. In addition, the GI50 turned out to be 1.17 µM in series [2] (48 h exposure), 0.38 µM in series [3] and 0.6 µM in series [4].
